These results are taken from patent publication US5026726A, “Gossylic iminolactones and gossylic lactones and their anti-viral activities” (The University of New Mexico, priority 1989, dated 1991).

The subject of one data set is parainfluenza type 3. The settings on record: literature; cited from earlier work.
Data set [1] deals with billirubin binding site of the protein albumin. The settings on record: literature; cited from earlier work.
A further data set concerns MT4 cells. Description: Cytotoxicity to MT4 cells (trypan blue exclusion). The class given is cell-based. Particulars: for toxicity to the host cell: MT4 cells. The protocol:
(§1) The above % IFA positive cells were determined 6 days after addition of HIV-1 virus. Cell viability is % viable cells relative to mock-treated cells or controls. FIGS. 1-A through D show one of many representative set of data.
(§2) The infected cells were then resuspended in a complete medium (RPMI 1640 with 20% FBS, L-glutamine, 2 mM, penicillin, 100 units/ml, and streptomycin, 100 ug/ml). Aliquots were added to 24-well tissue culture plates containing varying concentrations of Compounds I, II, III and IV in complete media. The final cell concentration was 1.5×10^5 cells/ml.
(§3) Positive control wells received no drug. Negative control wells received mock-treated MT4 cells. Cells were incubated at 37° C. in 5% CO2. Media was changed after 3 days with fresh complete media containing the appropriate drug.
(§4) After 6 days, the viability of the MT4 cells, control or infected, was determined by trypan blue exclusion, which is a standard procedure to determine cell viability.

For another data set, the system named is Trypanosoma cruzi. Particulars: literature; cited from earlier work.
Data set [2] concerns HIV-1 virus (HIV-infected MT4 cells). Description: Anti-HIV-1 activity in infected MT4 cells (% IFA positive cells, 6 days). The class given is cell-based, human immunodeficiency virus (HIV-1), LAV-A isolate. The protocol:
as §1
An LAV-A isolate of human immunodeficiency virus (HIV-1) was used in this study. LAV-A was originally isolated by Dr. L. Montagnier, Pasteur Institute, Paris, and was obtained from Dr. T. Folks, NIAID.
MT4 cells, 10^7 cells/ml, were infected for 1 hour at 4° C., with stock HIV-1 virus, 0.5 ml stock/10^7 cells.
as §2, §3
The percent HIV-1 viral infection was determined by an immunofluorescence assay (IFA) using heat-inactivated, pooled human anti-sera from HIV-positive patients as the first antibody and goat anti-human IgG conjugated with FITC as the second antibody. This is a standard immunoassay known in the art.
Slides were counterstained with Evans blue to obtain total cell counts from the same slides as is known in the art. Uninfected cells were consistently negative for fluorescence.

A further data set deals with herpes simplex viruses. Particulars: literature; cited from earlier work.
Data set [3] has as its system herpes simplex virus type II. Particulars: literature; cited from earlier work.
The subject of the next data set is Plasmodium falcicarum. Particulars: literature; cited from earlier work.
The nature of data set [4]: Cytotoxicity to MT4 cells (trypan blue exclusion). The class given is cell-based. Particulars: human, mt4 cells; for MCC at 144 h: read-out: concentration at which toxicity to the host cell was shown. How it is done:
as §1, §2, §3, §4

The conditions of data set [5]: literature; cited from earlier work.
Another data set relates to HIV virus. The settings on record: after prolonged exposure, literature; cited from earlier work.
Data set [6] concerns reverse transcriptase (RT). The settings on record: literature; cited from earlier work.

Structures are written as SMILES.

The CC50 is the concentration that lowers cell viability or growth by half. Higher therefore signals lower toxicity to the cells. For orientation: inhibition means the drop in the measured response relative to a control, in per cent.

On to `Cc1cc2c(C(C)C)c(O)c(O)c(C=O)c2c(O)c1-c1c(C)cc2c(C(C)C)c(O)c(O)c(C=O)c2c1O` [Compound I, gossypol], for which the “antiviral properties: inactivation of parainfluenza type 3” value with parainfluenza type 3 is reported as “capable of inactivating”. For the same compound, the “binding to the bilirubin binding site of albumin” value in data set [1] is “bind tightly”. Moreover, the “toxicity to the host cell” value in the data set on MT4 cells (1 uM) is recorded as “significant toxicity to the host cell”. In addition, the “growth of Trypanosoma cruzi” value in the data set with Trypanosoma cruzi is recorded as “inhibited”. Moreover, in [2] (1 uM, 6 days), the “inhibition of virus replication” value was “approximately 50%”. Also, in the data set on herpes simplex viruses, the “antiviral properties: inactivation of herpes simplex viruses” value is given as “capable of inactivating”. Also, the “antiviral activity against herpes simplex virus type II” value in data set [3] was “exhibit antiviral activities”. For the same compound, the “growth of Plasmodium falcicarum” value with Plasmodium falcicarum is “inhibited”.
For the compound `Cc1cc2c(C(C)C)c(O)c(O)c3c2c(c1-c1c(C)cc2c(C(C)C)c(O)c(O)c4c2c1OC4=O)OC3=O` [Compound IV, gossylic lactone], in the data set with MT4 cells (250 uM), the “toxicity to the MT4 cell” value is on record as “pronounced toxicity”. Moreover, in data set [2] (below 250 uM), the antiviral activity result is given as “very little antiviral activity”.
In the case of `Cc1cc2c(C(C)C)c(O)c(O)c3c2c(c1-c1c(C)cc2c(C(C)C)c(O)c(O)c4c2c1OC4=N)OC3=N` [Compound III, gossylic iminolactone], the “toxicity to the host cell” value in the data set with MT4 cells (until the drug concentration reached 50 uM) is on record as “no toxicity to the host cell”. In data set [4], the CC50 at 144 h fell in the range of 25 to 50 µM and the MCC at 144 h is 50 µM. Further, the inhibition at 1 µM in data set [2] (Human immunodeficiency virus 1, 144 h, 1 uM, 6 days, read-out: inhibition of virus replication) is about 50%. In [2] (Human immunodeficiency virus 1, 144 h, read-out: ED50 (the source's name)), the EC50 is 1 µM.
Regarding `CC(=O)Oc1c(-c2c(C)cc3c(C(C)C)c(O)c(O)c(C#N)c3c2OC(C)=O)c(C)cc2c(C(C)C)c(O)c(O)c(C#N)c12` [Compound II, Gossylic nitrile-1,1'-diacetate], in data set [4], the MCC at 144 h amounted to 250 µM. Also, the inhibition at 50 µM in data set [2] (Human immunodeficiency virus 1, 144 h, 50 uM, 6 days, read-out: inhibition of virus replication) was about 50%.
Regarding `Cc1cn([C@H]2C[C@H](N=[N+]=[N-])[C@@H](CO)O2)c(=O)[nH]c1=O` [AZT, 3'-azido-2',3'-dideoxythymidine], in [5], the “toxicity limiting use in HIV-infected patients” value was “hematologic toxicity limits, and in some cases precludes, the use”. For the same compound, the “development of HIV resistance” value in the data set on HIV virus is recorded as “may develop resistance”. For the same compound, in data set [6], the “inhibition of reverse transcriptase” value is given as “inhibitor of the enzyme reverse transcriptase”.
